Paper PMC12888871, “Population pharmacokinetics of caspofungin in critically ill Chinese children: a prospective observational study” (Antimicrobial Agents and Chemotherapy, 2025)
Read-outs that look alike come from different tables or passages of the source.

How the values were obtained:
[1] = system: positive fungal culture (C. parapsilosis, C. albicans, C. tropicalis, C. guilliermondii); test: Fungal culture conversion during caspofungin therapy; assay type: in vivo, human (critically ill children); settings: thirteen patients with positive fungal culture during caspofungin infusion
Experimental: A prospective clinical study was conducted among pediatrics in PICU from Children’s Hospital of Fudan University from 1 November 2022 to 30 December 2024. Children aged 3 months to 18 years who were admitted to PICU and received caspofungin therapy were eligible for inclusion. The study population encompassed critically ill children, including but not limited to those with liver insufficiency, hypoproteinemia, ECMO treatment, continuous renal replacement therapy (CRRT), or sepsis. Eligible subjects were administered a once-daily, 1-h intravenous infusion of caspofungin, following a body surface area (BSA)-based dosage regimen: a loading dose (LD) of 70 mg/m² (not to exceed 70 mg) on the first day, followed by 50 mg/m² (not exceed 70 mg) for maintenance dose (MD). BSA was calculated using the Mosteller formula: […] ([14]). All participants were provided written consent prior to participating in the study (US Clinical Trials, NCT04961593). Demographic and baseline clinical laboratory data were collected from the medical records, including age, sex, body weight, height, BSA, liver function, renal function, and various biomarkers reflecting immune system status. Information on bacterial cultures was also collected from microbiological laboratory reports. […]

[2] = cited from earlier work
Excerpt: Our results are consistent with three published pediatric PopPK studies that also employed a two-compartment model ([25][–][27]). In contrast, one other pediatric study employed a one-compartment model, probably due to its sparse PK data (48 subjects and 139 observations) ([28]). […] The b ... || Previous studies involving pediatric populations typically included body size on PK parameters. Among them, three studies ([25], [26], [28]) included BSA as a significant covariate on CL and V1 while one study ([27]) emphasized the effect of body weight. In our study, allometric BSA-based allometric scaling yielded lower OFV and AIC compared with weight, LBW, and FFM. The estimated BSA exponent for CL varied considerably across studies, likely reflecting differences in study populations.

[3] = Population pharmacokinetic analysis of total plasma caspofungin in PICU patients (final two-compartment model, NONMEM, n = 29, 138 samples); assay type: in vivo, human (critically ill Chinese children); settings: for AUCss,24h, range / AUC(0-t): Bayesian posterior estimates; for AUC(0-t): plasma, iv, read-out: AUCss,24h, median
Experimental: A prospective clinical study was conducted among pediatrics in PICU from Children’s Hospital of Fudan University from 1 November 2022 to 30 December 2024. Children aged 3 months to 18 years who were admitted to PICU and received caspofungin therapy were eligible for inclusion. The study population encompassed critically ill children, including but not limited to those with liver insufficiency, hypoproteinemia, ECMO treatment, continuous renal replacement therapy (CRRT), or sepsis. Eligible subjects were administered a once-daily, 1-h intravenous infusion of caspofungin, following a body surface area (BSA)-based dosage regimen: a loading dose (LD) of 70 mg/m² (not to exceed 70 mg) on the first day, followed by 50 mg/m² (not exceed 70 mg) for maintenance dose (MD). BSA was calculated using the Mosteller formula: […] ([14]). All participants were provided written consent prior to participating in the study (US Clinical Trials, NCT04961593). Demographic and baseline clinical laboratory data were collected from the medical records, including age, sex, body weight, height, BSA, liver function, renal function, and various biomarkers reflecting immune system status. Information on bacterial cultures was also collected from microbiological laboratory reports. The biochemical measurements were derived from the most recent clinical laboratory results available within 7 days prior to the first caspofungin administration, reflecting the patient’s baseline physiological status.
Total caspofungin plasma concentrations were quantified using a liquid chromatography tandem mass spectrometry (LC-MS/MS) method. Blood samples were collected with EDTA-K2 as anticoagulant, and plasma was obtained by centrifugation at 4,000 g for 5 min and stored at −80°C until analysis, which would be performed within 30 days. The analysis was performed using the LC-40AD chromatographic system (Shimazu, Tokyo, Japan) combined with a 6500+ Triple Quad mass spectrometry system (AB Sciex, Framingham, USA). The separation is achieved on a Kinetex C18 column (2.1 × 50 mm, 2.6 μm) using a mobile phase composed of buffer (0.1% [vol/vol] formic acid and 5 mM ammonium acetate) and methanol (0.1% [vol/vol] formic acid). A volume of 40 μL of each plasma sample was precipitated with 260 μL of methanol with 0.4% formic acid. After centrifugation, 150 μL of the supernatants was mixed with 150 μL of water, and a volume of 1 μL of mixture was injected into the chromatographic system. The calibration range of caspofungin was linear over the range of 0.05 to 50 μg/mL with a lower limit of quantification (LLOQ) of 0.05 μg/mL. The samples with concentration that exceeded the upper limit were diluted into half by using blank plasma sample. All the analysis run met the requirement of M10 guideline for bioanalytical method validation and study sample analysis ([15]).
(§1) This study incorporated data from two study stages: the intensive sampling stage, followed by a sparse sampling stage (Fig. S1). In the first stage, the sampling time points were scheduled at pre-dose, 1, 2, 4, 8 h (if feasible) and 16 h (if feasible) following the most recent dose (the sixth administration after the first dose). The optimal sparse sampling design was then conducted to minimize the number of sampling points based on the defined constraint conditions. The designed sparse sampling time windows were pre-dose (0–1 h), 0.5–1.5, 6–7, and 23–24 h after the prior dose (the sixth administration after the first dose). The detailed optimal design process was described in the Supplemental material.
The PopPK model was developed using the non-linear mixed-effects modeling software NONMEM (version 7.5, ICON Development Solutions, Ellicott City, Maryland) with the first-order conditional estimation with interaction (FOCE-I) algorithm. […]

[4] = First-stage population pharmacokinetic model from intensive sampling (n = 14), used for optimal sampling design; assay type: in vivo, human (critically ill children)
Experimental: as §1
During the optimized sampling process, explicit constraint conditions were defined. In the second phase of our study, approximately 40 participants were to be recruited to receive a daily 1-hour intravenous infusion of caspofungin, with a BSA-based dosing strategy. Sampling was planned to take place within one single day after reaching steady-state levels. Given that the study subjects were pediatric patients, we aimed to minimize the number of sampling points.
Design software tools, including $DESIGN option in NONMEM and PopED (version 0.6.0, R package), were utilized to explore design elements such as sampling size, and sampling times. These tools evaluated uncertainties in PK parameter estimates based on the current sampling scheme and population pharmacokinetic (PPK) model. The designs were evaluated to ensure the precise estimation of typical PK parameters, defined as a relative standard error (RSE) of less than 50%.
Figure S1. Study flow diagram. In the first stage of the study, a population pharmacokinetic model was developed based on intensive sampling data collected from the prospective clinical study conducted among pediatrics with a small sample size in ICU. Secondly, design software tools, including $DESIGN in NONMEM and PopED, were utilized to optimize sampling design. During the third phase in our study, the optimized sampling scheme would be applied to a larger-scale study.

[5] = published pediatric PK estimates

## CC[C@H](C)C[C@H](C)CCCCCCCCC(=O)N[C@H]1C[C@@H](O)[C@@H](NCCN)NC(=O)[C@@H]2[C@@H](O)CCN2C(=O)[C@H]([C@H](O)CCN)NC(=O)[C@H]([C@H](O)[C@@H](O)c2ccc(O)cc2)NC(=O)[C@@H]2C[C@@H](O)CN2C(=O)[C@H]([C@@H](C)O)NC1=O [caspofungin]
[1]
  Culture conversion in patients with positive fungal culture: all of them eventually achieved successful culture conversion to negative
[2]; other four pediatric studies
  Elimination rate constant (ke), median: 0.0875 h⁻¹
  Elimination rate constant (ke), range: 0.074 to 0.101 h⁻¹
[2]; [5]
  BSA-normalized clearance, median: 0.208 L/h/m^2
  BSA-normalized clearance, range: 0.126–0.21 L/h/m^2
  BSA-normalized volume of distribution (V1), median: 2.19 L/m^2
  BSA-normalized volume of distribution (V1), range: 1.72–2.62 L/m^2
[3]; ECMO group, n = 4
  AUCss,24h, range: 17.20 to 176.04 µg·h/mL
[3]; non-ECMO group, n = 25
  AUCss,24h, range: 53.18 to 380.95 µg·h/mL
[3]; final PopPK model
  Increase in V1 associated with ECMO: 18.2 fold
  Q (inter-compartment exchange rate), estimate: 1.01 L/h
  V2 (peripheral volume), estimate: 1.63 L
[3]; final PopPK model, bootstrap n = 1,000
  V2, bootstrap (n = 1,000) median [95% CI]: 1.89 [1.20–4.29] L
[3]; final PopPK model, scaled to 0.79 m^2 (BSA exponent 1), without ECMO
  V1 (volume of the central compartment), estimate: 2.22 L
[3]; human, ECMO group, n = 4
  AUC(0-t): 117 µg·h/mL
[3]; human, non-ECMO group, n = 25
  AUC(0-t): 194 µg·h/mL
[3]; human, final PopPK model, typical value scaled to a 0.79 m^2 individual (BSA exponent 0.66), 1-h iv infusion once daily, total plasma, LC-MS/MS, n = 29, read-out: CL, estimate (converted)
  clearance: 3.27 mL/min
[3]; this study, final PopPK model
  BSA-normalized CL: 0.248 L/h/m^2
  BSA-normalized V1: 2.81 L/m^2
  Elimination rate constant (ke): 0.088 h⁻¹
[4]; exponent on AST/52.5
  The effect of AST on Q, final estimate: 0.898
[4]; human, plasma, iv, n = 14, CL = 0.477 x (weight/70)^0.75, read-out: CL, final estimate (converted)
  clearance: 7.95 mL/min
[4]; n = 14, Q = 0.512 x (weight/70)^0.75 x (AST/52.5)^0.898
  Q, final estimate: 0.512 L/h
[4]; n = 14, V1 = 11.8 x (weight/70)^1
  V1, final estimate: 11.8 L
[4]; n = 14, V2 = 19.2 x (weight/70)^1
  V2, final estimate: 19.2 L
